Results from US20250034118A1, “ANTIMALARIAL HEXAHYDROPYRIMIDINE DERIVATIVES” (UCB BIOPHARMA SRL, priority 2021, published 2025).
pIC50: −log10 of the molar value. Counter-ions that a name gives are not always drawn. Like-named read-outs stand apart in the source and are kept apart here.

Test system: Plasmodium falciparum 3D7 strain
Assay: P. falciparum 3D7 asexual blood stage assay (SYBR green readout)
Type: cell-based
Source text: The compounds of the present invention are potent inhibitors of the growth and propagation of the Plasmodium falciparum parasite in human blood.
The assay used to measure the effect of test compounds on a bloodstream stage of Plasmodium falciparum 3D7 strain employs SYBR green as the readout. This is a dye that binds to double stranded deoxyribonucleic acid (DNA) with a resulting increase in fluorescence, allowing detection of P. falciparum DNA in infected erythrocytes, and thereby providing a measure of parasite growth and propagation.
Erythrocytes (A+ blood) were prepared for both parasite culture and assay by washing 4 times with incomplete media (15.9 g RPMI 1640 (25 mM HEPES, L-glutamine), 1 g NaHCO3, 2 g glucose, 400 μL gentacin (500 mg/mL), 2 mL hypoxanthine solution (13.6 g/L in 0.1M NaOH pH 7.3) in 1 litre of media). The cells were centrifuged at 1800 g for 5 minutes, before decanting the supernatant and re-suspending in fresh incomplete media. On the final wash, the cells were re-suspended in complete media (incomplete media with 5 g/L AlbumaxII), and centrifuged at 1800 g for 3 minutes. This cell sediment was treated as 100% haematocrit.
P. falciparum 3D7 was cultured in erythrocytes at 5% haematocrit in complete media at 37° C. (1% O2, 3% CO2, balance N2). […]
On day 5, fluorescent signal was measured using a BioTek plate reader (excitation 485 nm, emission 528 nm). […]

SMILES	pIC50 (3D7, Erythrocyte, 72 h)	pIC50 (Erythrocyte, P. falciparum 3D7 in erythrocytes, 5% haematocrit, 0.5% parasitaemia, 72 h incubation, SYBR green fluorescence, read-out: IC50)
CO[C@H]1C[C@@H](N2C(=N)N[C@](C)(c3cccc(NC(=O)c4cncn4CC(F)(F)F)c3Cl)CC2=O)CCC1(F)F (relative stereo) [Example 2, N-(2-Chloro-3-{(4S)-1-[(1S*, 3S*)-4,4-difluoro-3-methoxycyclohexyl]-2-imino-4-methyl-6-oxohexahydropyrimidin-4-yl}phenyl)-3-(2,2,2-trifluoroethyl)imidazole-4-carboxamide hydrochloride]	8.38	
C[C@@H]1C[C@H](N2C(=N)N[C@](C)(c3cccc(NC(=O)c4cncn4CC(F)(F)F)c3Cl)CC2=O)CCC1(F)F [Example 1, N-(2-Chloro-3-{(4S)-1-[(1R,3R)-4,4-difluoro-3-methylcyclohexyl]-2-imino-4-methyl-6-oxohexahydropyrimidin-4-yl}phenyl)-3-(2,2,2-trifluoroethyl)imidazole-4-carboxamide]		8.30
